The source of these data is ChEMBL document CHEMBL5465560, “Selectivity Literature for EUbOPEN Chemogenomic Library” (2024).

The structures appear in SMILES notation.

In experiment [1] the target is Phosphatidylinositol 4,5-bisphosphate 3-kinase catalytic subunit alpha isoform (Homo sapiens) (UniProt P42336). The experiment is described as follows: Selectivity interaction (Adapta Assay) EUB0001632a PIK3CA. Conditions: at 10 µM.
The target of experiment [2] is Serine/threonine-protein kinase PLK1 (Homo sapiens, UniProt P53350). The experiment is described as follows: Selectivity interaction (Ambit KINOMEscan and KiNATiv profiling in Jurkat cells) EUB0000090b PLK1. The settings on record: at 1 µM. The experiment is classed as cell-based.
The target in experiment [3] is T1, Tyrosine-protein kinase TXK (Homo sapiens) (UniProt P42681).
T1 sequence (whole entry): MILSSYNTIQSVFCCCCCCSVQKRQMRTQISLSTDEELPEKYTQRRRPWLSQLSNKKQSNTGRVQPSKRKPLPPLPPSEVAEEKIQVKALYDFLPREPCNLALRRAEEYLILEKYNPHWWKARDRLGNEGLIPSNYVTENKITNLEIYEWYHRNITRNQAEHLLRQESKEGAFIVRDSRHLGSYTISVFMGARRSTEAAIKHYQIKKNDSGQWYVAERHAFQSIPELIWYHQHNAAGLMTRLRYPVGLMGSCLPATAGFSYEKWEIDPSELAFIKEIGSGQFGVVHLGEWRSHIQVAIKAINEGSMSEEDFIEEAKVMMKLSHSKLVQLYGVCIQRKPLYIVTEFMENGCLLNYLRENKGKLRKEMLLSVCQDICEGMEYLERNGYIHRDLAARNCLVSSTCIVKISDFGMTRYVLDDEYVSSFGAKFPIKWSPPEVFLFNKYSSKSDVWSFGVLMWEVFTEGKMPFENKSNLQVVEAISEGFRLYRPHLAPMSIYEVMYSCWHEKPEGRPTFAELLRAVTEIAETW
Nature of the experiment: Selectivity interaction (KinomeScan (DiscoverX)) EUB0000666a TXK. The settings on record: at 10 µM.

Experiment [4] deals with Ribosomal protein S6 kinase alpha-5 (Homo sapiens) (UniProt O75582). Nature of the experiment: Selectivity interaction (KinomeScan (DiscoverX)) EUB0000229b RPS6KA5. The settings on record: at 10 µM.
In experiment [5] the target is Calcium/calmodulin-dependent protein kinase kinase 2 (Homo sapiens) (UniProt Q96RR4). Nature of the experiment: Selectivity interaction (Kinase panel (literature)) EUB0001199aCl CAMKK2. The settings on record: at 1 µM.
The target of experiment [6] is T2, cAMP-dependent protein kinase catalytic subunit PRKX (Homo sapiens) (UniProt P51817).
T2 sequence (whole entry): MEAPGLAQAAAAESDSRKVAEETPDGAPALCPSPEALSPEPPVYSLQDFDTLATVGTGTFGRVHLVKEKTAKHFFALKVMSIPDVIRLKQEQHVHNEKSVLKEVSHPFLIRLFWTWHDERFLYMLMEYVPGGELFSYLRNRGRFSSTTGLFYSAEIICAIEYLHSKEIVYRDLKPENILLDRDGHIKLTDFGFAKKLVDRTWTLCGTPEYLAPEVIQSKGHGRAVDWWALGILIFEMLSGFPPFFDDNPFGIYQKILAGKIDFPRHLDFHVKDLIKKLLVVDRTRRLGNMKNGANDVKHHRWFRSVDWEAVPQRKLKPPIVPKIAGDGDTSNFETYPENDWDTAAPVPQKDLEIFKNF
The experiment is described as follows: Selectivity interaction (Kinase screening (Nanosyn)) EUB0000604a PRKX.

The target in experiment [7] is T2, cAMP-dependent protein kinase catalytic subunit PRKX (Homo sapiens). The experiment is described as follows: Selectivity interaction (KinomeScan (DiscoverX)) EUB0001049a PRKX. The settings on record: at 1 µM.
Experiment [8] has as its target T3, Serine/threonine-protein kinase Nek9 (Homo sapiens) (UniProt Q8TD19).
T3 sequence (whole entry): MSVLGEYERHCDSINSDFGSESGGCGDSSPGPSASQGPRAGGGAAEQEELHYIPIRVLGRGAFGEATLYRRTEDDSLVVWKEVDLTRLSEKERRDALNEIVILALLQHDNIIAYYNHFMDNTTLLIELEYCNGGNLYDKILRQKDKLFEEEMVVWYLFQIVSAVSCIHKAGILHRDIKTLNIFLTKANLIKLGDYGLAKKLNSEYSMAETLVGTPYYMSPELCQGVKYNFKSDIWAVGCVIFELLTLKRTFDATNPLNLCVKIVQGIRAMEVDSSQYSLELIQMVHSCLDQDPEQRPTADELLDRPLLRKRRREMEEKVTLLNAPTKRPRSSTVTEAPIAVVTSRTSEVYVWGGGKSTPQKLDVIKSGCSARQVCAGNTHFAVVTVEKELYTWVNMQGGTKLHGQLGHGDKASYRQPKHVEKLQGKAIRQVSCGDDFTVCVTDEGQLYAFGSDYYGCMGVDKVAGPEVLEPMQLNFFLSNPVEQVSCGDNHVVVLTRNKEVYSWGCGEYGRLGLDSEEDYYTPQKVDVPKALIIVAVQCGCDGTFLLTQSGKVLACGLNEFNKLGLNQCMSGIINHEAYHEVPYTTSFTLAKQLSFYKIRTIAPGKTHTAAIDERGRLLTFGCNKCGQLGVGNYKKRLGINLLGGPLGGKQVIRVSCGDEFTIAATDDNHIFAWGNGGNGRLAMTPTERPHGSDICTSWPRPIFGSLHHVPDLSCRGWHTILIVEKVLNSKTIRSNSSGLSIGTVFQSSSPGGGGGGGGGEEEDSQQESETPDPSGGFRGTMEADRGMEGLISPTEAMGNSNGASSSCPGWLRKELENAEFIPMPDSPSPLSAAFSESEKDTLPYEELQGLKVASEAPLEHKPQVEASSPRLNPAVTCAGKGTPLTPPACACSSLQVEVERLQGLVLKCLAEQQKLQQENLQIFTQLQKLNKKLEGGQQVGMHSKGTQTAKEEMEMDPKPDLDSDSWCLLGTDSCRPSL
Nature of the experiment: Selectivity interaction (KinomeScan (DiscoverX)) EUB0001049a NEK9. The settings on record: at 1 µM.

The target of experiment [9] is Polycomb protein EED (Homo sapiens) (UniProt O75530). Nature of the experiment: Selectivity interaction (PWWP, WD40, and Tudor domain panel (DSLS measurements, literature)) EUB0000270b EED.
For experiment [10], the target named is T4, Atypical kinase COQ8B, mitochondrial (Homo sapiens) (UniProt Q96D53).
T4 sequence (whole entry): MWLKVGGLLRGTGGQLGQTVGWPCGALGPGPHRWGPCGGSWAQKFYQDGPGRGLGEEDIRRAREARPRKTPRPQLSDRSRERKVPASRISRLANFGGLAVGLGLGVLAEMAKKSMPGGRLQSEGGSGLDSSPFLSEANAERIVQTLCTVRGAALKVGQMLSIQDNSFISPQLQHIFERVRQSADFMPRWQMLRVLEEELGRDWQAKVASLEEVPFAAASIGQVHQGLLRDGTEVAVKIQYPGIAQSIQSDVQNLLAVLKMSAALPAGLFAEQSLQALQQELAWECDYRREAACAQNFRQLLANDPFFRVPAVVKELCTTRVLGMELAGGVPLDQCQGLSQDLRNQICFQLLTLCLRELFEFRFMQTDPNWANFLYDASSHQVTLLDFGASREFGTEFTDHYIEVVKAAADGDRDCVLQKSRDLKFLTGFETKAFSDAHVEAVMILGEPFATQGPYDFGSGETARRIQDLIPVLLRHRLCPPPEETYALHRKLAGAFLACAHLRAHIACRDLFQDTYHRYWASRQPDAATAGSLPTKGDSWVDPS
The experiment is described as follows: Selectivity interaction (KinomeScan (DiscoverX)) EUB0000618a ADCK4. Conditions: at 10 µM.

Chain of Polycomb protein EED (Homo sapiens) (O75530 2-441 limits assumed): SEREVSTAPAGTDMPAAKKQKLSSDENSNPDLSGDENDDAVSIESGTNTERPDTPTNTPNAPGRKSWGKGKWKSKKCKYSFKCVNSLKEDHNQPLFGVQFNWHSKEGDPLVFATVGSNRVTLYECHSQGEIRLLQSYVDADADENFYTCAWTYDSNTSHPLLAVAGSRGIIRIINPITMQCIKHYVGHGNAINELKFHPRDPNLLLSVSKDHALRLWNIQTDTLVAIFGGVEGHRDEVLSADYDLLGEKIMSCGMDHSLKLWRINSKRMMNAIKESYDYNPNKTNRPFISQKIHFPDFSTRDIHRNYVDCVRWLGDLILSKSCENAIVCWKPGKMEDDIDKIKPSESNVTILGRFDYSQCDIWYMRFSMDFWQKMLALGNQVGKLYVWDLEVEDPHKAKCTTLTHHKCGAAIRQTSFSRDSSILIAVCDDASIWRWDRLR
Chain of Ribosomal protein S6 kinase alpha-5 (Homo sapiens) (O75582 whole entry, looked up): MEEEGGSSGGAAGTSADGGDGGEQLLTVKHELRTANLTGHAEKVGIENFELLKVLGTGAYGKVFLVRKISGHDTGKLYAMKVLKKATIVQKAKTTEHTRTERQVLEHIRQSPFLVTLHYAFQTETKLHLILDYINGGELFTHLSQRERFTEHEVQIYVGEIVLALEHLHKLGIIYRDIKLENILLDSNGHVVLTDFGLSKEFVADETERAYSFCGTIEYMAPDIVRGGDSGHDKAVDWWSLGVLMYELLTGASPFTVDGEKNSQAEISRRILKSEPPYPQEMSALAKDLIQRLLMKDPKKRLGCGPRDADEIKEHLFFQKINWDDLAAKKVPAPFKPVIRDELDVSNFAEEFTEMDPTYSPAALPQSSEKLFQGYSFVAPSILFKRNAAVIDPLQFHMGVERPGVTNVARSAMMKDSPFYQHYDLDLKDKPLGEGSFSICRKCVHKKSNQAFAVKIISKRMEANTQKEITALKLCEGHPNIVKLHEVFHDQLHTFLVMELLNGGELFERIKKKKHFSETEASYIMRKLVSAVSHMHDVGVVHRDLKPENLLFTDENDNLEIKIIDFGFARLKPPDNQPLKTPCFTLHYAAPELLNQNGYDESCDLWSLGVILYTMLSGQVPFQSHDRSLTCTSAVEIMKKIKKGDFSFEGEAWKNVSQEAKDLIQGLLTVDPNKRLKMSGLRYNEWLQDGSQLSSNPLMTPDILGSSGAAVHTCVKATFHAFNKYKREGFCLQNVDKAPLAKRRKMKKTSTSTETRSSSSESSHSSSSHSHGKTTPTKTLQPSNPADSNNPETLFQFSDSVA
Chain of Serine/threonine-protein kinase PLK1 (P53350 whole entry): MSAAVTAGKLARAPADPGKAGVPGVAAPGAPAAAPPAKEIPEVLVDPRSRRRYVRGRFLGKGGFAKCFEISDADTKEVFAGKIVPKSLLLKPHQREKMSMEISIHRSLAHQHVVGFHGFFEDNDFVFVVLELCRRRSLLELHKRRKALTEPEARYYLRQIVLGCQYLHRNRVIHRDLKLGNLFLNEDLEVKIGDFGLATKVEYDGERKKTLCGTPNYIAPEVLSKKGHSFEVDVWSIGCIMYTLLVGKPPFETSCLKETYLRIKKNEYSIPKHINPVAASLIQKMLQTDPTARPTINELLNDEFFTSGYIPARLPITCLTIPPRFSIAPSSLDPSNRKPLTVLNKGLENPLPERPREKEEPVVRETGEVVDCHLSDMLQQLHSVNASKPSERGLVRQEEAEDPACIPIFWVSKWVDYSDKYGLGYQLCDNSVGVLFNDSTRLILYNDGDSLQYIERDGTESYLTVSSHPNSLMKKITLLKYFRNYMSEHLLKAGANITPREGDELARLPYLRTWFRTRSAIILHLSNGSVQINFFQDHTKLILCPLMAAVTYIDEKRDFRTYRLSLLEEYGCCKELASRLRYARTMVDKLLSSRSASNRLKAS
Chain of Calcium/calmodulin-dependent protein kinase kinase 2 (Homo sapiens) (Q96RR4 2-588 limits assumed): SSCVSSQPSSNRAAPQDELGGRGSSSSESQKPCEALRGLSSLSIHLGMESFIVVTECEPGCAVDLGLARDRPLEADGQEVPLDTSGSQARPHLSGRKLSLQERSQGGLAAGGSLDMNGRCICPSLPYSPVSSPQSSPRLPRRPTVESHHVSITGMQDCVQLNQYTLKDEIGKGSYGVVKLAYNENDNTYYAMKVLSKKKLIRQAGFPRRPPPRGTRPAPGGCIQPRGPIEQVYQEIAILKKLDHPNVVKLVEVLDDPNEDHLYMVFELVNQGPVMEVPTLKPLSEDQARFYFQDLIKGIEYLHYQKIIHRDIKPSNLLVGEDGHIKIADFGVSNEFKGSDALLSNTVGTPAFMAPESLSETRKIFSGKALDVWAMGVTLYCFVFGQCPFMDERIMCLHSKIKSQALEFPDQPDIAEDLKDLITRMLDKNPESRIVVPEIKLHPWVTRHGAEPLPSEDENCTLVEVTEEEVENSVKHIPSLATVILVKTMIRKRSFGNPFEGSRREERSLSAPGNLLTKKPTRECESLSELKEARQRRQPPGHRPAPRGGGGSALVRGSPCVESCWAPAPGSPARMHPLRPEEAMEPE
Chain of Phosphatidylinositol 4,5-bisphosphate 3-kinase catalytic subunit alpha isoform (Homo sapiens) (P42336 whole entry, canonical isoform): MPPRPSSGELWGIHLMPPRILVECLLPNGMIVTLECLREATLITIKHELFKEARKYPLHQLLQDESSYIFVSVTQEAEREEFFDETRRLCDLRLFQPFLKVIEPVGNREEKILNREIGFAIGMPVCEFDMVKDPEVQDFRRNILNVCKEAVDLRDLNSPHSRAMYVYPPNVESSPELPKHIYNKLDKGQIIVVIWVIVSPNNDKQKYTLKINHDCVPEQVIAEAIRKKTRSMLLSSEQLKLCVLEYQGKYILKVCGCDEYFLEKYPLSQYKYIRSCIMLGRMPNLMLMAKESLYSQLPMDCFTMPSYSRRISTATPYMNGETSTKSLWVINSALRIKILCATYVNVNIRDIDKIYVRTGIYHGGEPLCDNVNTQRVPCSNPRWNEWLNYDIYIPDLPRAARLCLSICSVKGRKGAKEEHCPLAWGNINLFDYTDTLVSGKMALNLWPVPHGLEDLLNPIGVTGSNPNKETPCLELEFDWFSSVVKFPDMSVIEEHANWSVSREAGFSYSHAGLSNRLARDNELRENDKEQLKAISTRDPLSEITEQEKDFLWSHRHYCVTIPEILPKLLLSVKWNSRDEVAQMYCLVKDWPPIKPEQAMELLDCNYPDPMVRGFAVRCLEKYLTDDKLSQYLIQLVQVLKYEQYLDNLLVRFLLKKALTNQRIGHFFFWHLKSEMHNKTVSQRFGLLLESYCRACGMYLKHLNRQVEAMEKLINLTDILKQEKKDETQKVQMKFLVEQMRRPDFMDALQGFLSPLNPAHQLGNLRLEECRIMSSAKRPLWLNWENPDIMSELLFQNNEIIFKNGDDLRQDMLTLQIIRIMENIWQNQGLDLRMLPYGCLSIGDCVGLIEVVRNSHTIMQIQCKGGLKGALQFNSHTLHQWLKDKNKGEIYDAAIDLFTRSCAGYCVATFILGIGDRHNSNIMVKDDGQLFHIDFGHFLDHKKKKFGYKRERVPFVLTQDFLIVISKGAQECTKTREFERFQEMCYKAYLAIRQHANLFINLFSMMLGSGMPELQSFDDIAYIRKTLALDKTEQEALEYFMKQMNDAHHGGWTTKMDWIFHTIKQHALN

Consider `Cn1cc(-n2cnc3c(NCc4nc5cc(Cl)c(Cl)cc5[nH]4)nc(N4CCOCC4)nc32)cn1`, for which, in experiment [1], the % of inhibition is 22.8%.

As for `CN(C)C/C=C/C(=O)Nc1ccc(C(=O)N2CCCC(Nc3ncc(Cl)c(-c4c[nH]c5ccccc45)n3)C2)cc1` (stereo not given), the % of control in [2] amounted to 90%.

Turning to `O=C(NOC[C@H](O)CO)c1ccc(F)c(F)c1Nc1ccc(I)cc1F`, the % of control in experiment [3] was 100%.

`COc1cc(N(C)c2ccnc3ccc(C(F)(F)F)cc23)cc(OC)c1OC`: the % binding in experiment [4] was 85%.

As to `CN1Cc2nccc(-c3cn(C)nc3-c3ccc(F)cc3)c2C1=O`, the % of inhibition in experiment [5] is -3%.

For `Cc1cnc(Nc2ccc(F)cc2Cl)nc1-c1c[nH]c(C(=O)N[C@H](CO)c2cccc(Cl)c2)c1`, the % of inhibition in [6] was determined as 3%.

Regarding `COc1cc(Nc2nc(C)cc(-c3cnn4nc(OC)ccc34)n2)cc(C(F)(F)F)c1`, the % of control in experiment [7] amounted to 87%; in [8], 94%.

As to `Cc1cc(CN)cc(C)c1-c1ncn(C)c1-c1cncn1C`, the dTagg in [9] came to 0.2 K.

With `O[C@H]1CC[C@H](Nc2ncc3nc(Nc4c(F)cc(F)cc4F)n([C@H]4CCOC4)c3n2)CC1`, the % of control in [10] amounted to 87%.
